Values quoted from earlier work, collected in patent publication US20230104874A1, “HERBAL PREPARATION FOR PREVENTION AND TREATMENT OF HELICOBACTER PYLORI INFECTION” (HerbElixa DOO BEOGRAD- NOVI BEOGRAD, priority 2020, published 2023).

Experiments:
H. pylori = conditions: literature
Gram negative bacteria = conditions: Korona-Glowniak et al. 2020

## Cc1ccc(C(C)C)cc1O [carvacrol]
H. pylori
  anti-H. pylori activity in vitro: bactericidal activity

## Cc1ccc(C(C)C)cc1 [p-cymene]
Gram negative bacteria
  antibacterial activity against Gram negative bacteria: no antibacterial activity

## Cc1ccc(C(C)C)c(O)c1 [thymol]
H. pylori
  anti-H. pylori activity in vitro: high bactericidal activity

## CC1=CCC(C(C)C)=CC1 [γ-terpinene]
Gram negative bacteria
  antibacterial activity against Gram negative bacteria: no antibacterial activity
